Literature values as cited in patent publication US20130230592A1, “NOVEL OMEGA-3 AND OMEGA-6 FATTY ACID COMPOSITIONS AND USES THEREOF” (priority 2010, published 2013).

Details: after oral intake of 750 mg EPA

## CCC=CCC=CCC=CCC=CCC=CCCCC(=O)O [EPA, eicosa-5,8,11,14,17-pentaenoic acid]
  plasma level: about 417 μmol/L
